Test results as given in US5728829A, “Process of preparing benzodiazepine compounds useful as antagonists of CCK or of gastrine” (Ferring-Research Limited, priority 1993, dated 1998).
Where two headings read alike, the source gives them in different places.

Key:
[1] = system: pentagastrin-stimulated gastric acid secretion; experiment: Measurement of inhibition of pentagastrin-stimulated gastric acid secretion in rat; type: in vivo; details: intravenous; for % Inhibition (maximum inhibition of gastric acid secretion): at 0.1 μmol/kg, mean for 3-5 animals; for ED50: read-out: ED50 (dose reducing secreted gastric acid to 50% of the maximum level), table 3, "Relative ED50 values", anaesthetised rat, pentagastrin 15 μg/Kg/hr
Description: Measurement of inhibition of pentagastrin-stimulated gastric acid secreation in rat
A cannula was inserted into the trachea of a rat anaesthetised with urethane (intraperitoneally administered, 1.25 g/Kg), its abdominal wall was incised to expose the gastric and duodenal portions, and a polyethylene cannula was set in the anterior stomach after ligation of the cardia. The duodenum was then subjected to slight section, a polyethylene cannnula was inserted from the incised portion toward the stomach, and the pylorus was ligated to fix the cannula.
Physiological saline (with pH adjusted to 7.0) was perfused from the anterior stomach toward the pylorus at a rate of 3 ml/min, and the gastric-acid secreation was measured by continuous titration of the perfusate by the use of a pH-stat (AUT-201; product of Toa Electronics, Ltd.). The continuous titration was carried out by using 25 mM NaOH solution until the pH reached 7.0, and the result was expressed as the amount of gastric acid secreted for every 10 minutes (μEq /10 min.). Pentagastrin was intravenously administered at a rate of 15 μg/Kg/hr.
The secretion of gastric acid increased upon administration of pentagastrin, reaching the maximum level after 60 minutes and stably maintaining this level after that.

CCK-B receptor = target: T1, CCK-B receptor (Rattus norvegicus, UniProt P30553); experiment: Measurement of binding affinity for CCK-B receptors ([125I]BH-CCK-8, rat brain membranes); set-up: species or system SD rat
T1 construct: the whole brain was immediately excised from each of the rats and homogenized; from tissue; host or cells: SD rat whole brain membranes
T1 sequence (P30553 1-452): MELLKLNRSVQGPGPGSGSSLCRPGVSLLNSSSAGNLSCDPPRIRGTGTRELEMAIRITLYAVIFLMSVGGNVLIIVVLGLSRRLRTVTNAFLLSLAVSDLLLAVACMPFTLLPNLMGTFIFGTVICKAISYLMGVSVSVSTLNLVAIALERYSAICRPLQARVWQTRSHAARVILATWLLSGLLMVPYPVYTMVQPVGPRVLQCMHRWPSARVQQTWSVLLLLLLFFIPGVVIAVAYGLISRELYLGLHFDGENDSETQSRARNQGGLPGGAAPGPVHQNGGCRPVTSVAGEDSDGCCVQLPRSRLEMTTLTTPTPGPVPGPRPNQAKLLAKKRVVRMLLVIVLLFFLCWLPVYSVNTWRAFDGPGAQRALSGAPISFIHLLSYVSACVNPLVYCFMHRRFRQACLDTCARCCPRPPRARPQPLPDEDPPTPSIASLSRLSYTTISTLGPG
Protocol: About 100 SD rats were decapitated without anaesthesia, the whole brain was immediately excised from each of the rats and homogenized in 10-fold volume of 0.32M aqueous solution of sucrose by the use of a Teflon-coated homogenizer, the homogenate thus obtained was centrifuged for ten minutes at 900 G by the use of a cooled centrifuge, and the supernatant was further centrifuged for 15 minutes at 11500 G. The precipitate thus obtained was dispersed in 50 mM Tris-HCl buffer (pH 7.4) containing 0.08% Triton X-100, this suspension was allowed to stand for 30 minutes and again centrifuged for 15 minutes at 11500 G, the precipitate thus obtained was washed twice with 5 mM Tris-HCl buffer and twice with 50 mM Tris-HCl buffer in that order with centrifugal separation, the washed precipitate was suspended in 50 mM Tris-HCl buffer, and the suspension thus obtained was stored at -80° C. until the membrane preparation was required.
The membrane preparations were warmed to room temperature, diluted with 10 mM HEPES buffer (containing 130 mM NaCl, 5 mM MgCl2, 1 mM EGTA and 0.25 mg/ml bacitracin; pH 6.5) and incubated at 25° C. for 120 minutes in the presence of [^125 I]BH-CCK-8 and the test compound, then separated by suction filtration. Non-specific binding was determined in the presence of 1 μM CCK-8. The amount of labelled ligand bound to the receptor was measured by the use of a γ-counter, IC50 values were determined, being that concentration of test compound required to inhibit specific binding by 50%.

CCK-A receptor = target: T2, CCK-A receptor (Rattus norvegicus, UniProt P30551); experiment: Selectivity for the CCK-B receptor by comparison with binding to the CCK-A receptor in rats ([3H]L-364,718, pancreas membranes); set-up: species or system SD rat; details: table 2; for A/B Ratio: IC50 (CCK-A)/IC50 (CCK-B): higher value = better CCK-B selectivity; for IC50: rat pancreas membranes, [3H]L-364,718, 37 °C, 30 min, read-out: Receptor binding affinity IC50, CCK-A
T2 construct: The pancreas of an SD rat was homogenized; from tissue; host or cells: SD rat pancreas membranes
T2 sequence (P30551 1-444): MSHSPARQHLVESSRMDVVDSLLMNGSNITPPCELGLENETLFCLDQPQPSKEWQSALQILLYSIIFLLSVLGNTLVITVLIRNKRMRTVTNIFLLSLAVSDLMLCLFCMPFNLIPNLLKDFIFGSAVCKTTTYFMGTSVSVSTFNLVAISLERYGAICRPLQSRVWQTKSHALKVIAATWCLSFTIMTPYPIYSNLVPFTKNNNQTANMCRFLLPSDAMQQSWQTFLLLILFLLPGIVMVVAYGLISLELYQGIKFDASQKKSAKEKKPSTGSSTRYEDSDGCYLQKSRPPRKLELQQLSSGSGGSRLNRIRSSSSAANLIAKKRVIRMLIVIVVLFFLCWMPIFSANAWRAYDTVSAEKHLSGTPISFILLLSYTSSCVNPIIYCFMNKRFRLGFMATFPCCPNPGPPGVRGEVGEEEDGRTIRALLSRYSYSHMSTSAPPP
Protocol: Determination of selectivity for the CCK-B receptor by comparison with binding to the CCK-A receptor in rats
The pancreas of an SD rat was homogenized in a 20-fold volume of 50 mM Tris-HCl buffer (pH 7.7) by the use of a Polytrone-type homogenizer, the homogenate was twice centrifuged for 10 minutes at 50000 G by the use of an ultra-centrifuge, the precipitate thus obtained was suspended in a 40-fold volume of 50 mM Tris-HCl buffer (containing 0.2% BSA, 5 mM MgCl2, 0.1 mg/ml bacitracin and 5 mM DTF; pH 7.7), and the suspension was stored at -80° C. until the membrane preparations were required.
The membrane preparations were then warmed to room temperature, diluted 1:10 with the buffer and incubated at 37° C. for 30 minutes in the presence of [^3 H]L-364,718 and the test compound then separated by suction filtration. Non-specific binding was determined in the presence of 1 μM L-364,718.
A high affinity for the CCK-A receptor in a CCK-B/gastrin antagonist is thought to be undesirable as it may lead to side-effects such as cholestasis and gall stone formation during therapy. Therefore it is preferable for the therapeutic agent to be selective for the CCK-B receptor. This selectivity is expressed by the ratio IC50 (CCK-A)/IC50 (CCK-B); the higher the value of this ratio the better is the selectivity.

[2] = table 2, rat brain membranes, [125I]BH-CCK-8, read-out: Receptor binding affinity IC50, CCK-B
[3] = table 1, rat brain membranes, [125I]BH-CCK-8, 25 °C, 120 min, read-out: IC50 (CCK-B receptor binding)

## CN(C)c1cccc(NC(=O)NC2N=C(c3cnccn3)c3ccccc3N(CC(=O)C(C)(C)C)C2=O)c1 (racemic) [Example 6, N-((3RS)-1-tert-Butylcarbonylmethyl-2,3-dihydro-2-oxo-5-(2-pyrazinyl)-1H-1,4-benzodiazepin-3-yl)-N'-(3-dimethylaminophenyl)urea]
[1]
  % Inhibition (maximum inhibition of gastric acid secretion): 61.9%
CCK-B receptor
  IC50: 0.22 nM

## CNc1cccc(NC(=O)N[C@@H]2N=C(c3ccccn3)c3ccccc3N(CC(=O)C(C)(C)C)C2=O)c1 [Example 52, N(-((3R)-1-tert-Butylcarbonylmethyl-2,3-dihydro-2-oxo-5-(2-pyridyl)-1H-1,4-benzodiazepin-3-yl)-N'-3-methylaminophenyl)urea]
CCK-B receptor; [2]
  IC50: 0.1 nM
CCK-A receptor
  A/B Ratio: IC50 (CCK-A)/IC50 (CCK-B): 5020
  IC50: 502 nM

## CN(C)c1cccc(NC(=O)NC2N=C(c3nccn3C)c3ccccc3N(CC(=O)C(C)(C)C)C2=O)c1 (racemic) [Example 2, N-((3RS)-1-tert-Butylcarbonylmethyl-2,3-dihydro-2-oxo-5-(2-(1-methyl)imidazolyl)-1H-1,4-benzodiazepin-3-yl)-N'-(3-dimethylaminophenyl)urea]
[1]
  % Inhibition (maximum inhibition of gastric acid secretion): 47.4%
CCK-B receptor
  IC50: 2.08 nM
CCK-A receptor
  A/B Ratio: IC50 (CCK-A)/IC50 (CCK-B): 238
  IC50: 495 nM

## Cc1cccc(NC(=O)NC2N=C(c3nccs3)c3ccccc3N(CC(=O)C(C)(C)C)C2=O)c1 (racemic) [Example 3, N-((3RS)-1-tert-Butylcarbonylmethyl-2,3-dihydro-2-oxo-5-(2-thiazolyl)-1H-1,4-benzodiazepin-3-yl)-N'-(3-methylphenyl)urea]
[1]
  % Inhibition (maximum inhibition of gastric acid secretion): 57.6%
CCK-B receptor
  IC50: 0.8 nM
CCK-A receptor
  A/B Ratio: IC50 (CCK-A)/IC50 (CCK-B): 540
  IC50: 433 nM

## Cc1cccc(NC(=O)N[C@@H]2N=C(c3ccccn3)c3ccccc3N(CC(=O)C(C)(C)C)C2=O)c1 [Example 42]
[1]
  ED50: 0.016 µmol/kg
CCK-B receptor; [3]
  IC50: 0.44 nM

## CN(C)c1cccc(NC(=O)N[C@@H]2N=C(c3ccccn3)c3ccccc3N(CC(=O)C(C)(C)C)C2=O)c1 [Example 22, N-((3R)-1-tert-Butylcarbonylmethyl-2,3-dihydro-2-oxo-5-(2-pyridyl)-1H-1,4-benzodiazepin-3-yl)-N'-((3-dimethylamino)phenyl)urea]
[1]
  ED50: 0.011 µmol/kg
CCK-B receptor; [3]
  IC50: 0.2 nM
CCK-B receptor; [2]
  IC50: 0.2 nM
CCK-A receptor
  A/B Ratio: IC50 (CCK-A)/IC50 (CCK-B): 565
  IC50: 113 nM

## CN(C)c1cccc(NC(=O)NC2N=C(c3nccs3)c3ccccc3N(CC(=O)C(C)(C)C)C2=O)c1 (racemic) [Example 4, N-((3RS)-1-tert-Butylcarbonylmethyl-2,3-dihydro-2-oxo-5-(2-thiazolyl)-1H-1,4-benzodiazepin-3-yl)-N'-(3-dimethylaminophenyl)urea]
[1]
  % Inhibition (maximum inhibition of gastric acid secretion): 55.2%
CCK-B receptor
  IC50: 0.63 nM
CCK-A receptor
  A/B Ratio: IC50 (CCK-A)/IC50 (CCK-B): 700
  IC50: 441 nM

## Cc1cccc(NC(=O)NC2N=C(c3cnccn3)c3ccccc3N(CC(=O)C(C)(C)C)C2=O)c1 (racemic) [Example 5, N-((3RS)-1-tert-Butylcarbonylmethyl-2,3-dihydro-2-oxo-5-(2-pyrazinyl)-1H-1,4-benzodiazepin-3-yl)-N'-(3-methylphenyl)urea]
[1]
  % Inhibition (maximum inhibition of gastric acid secretion): 55.4%

## CN(C)c1cccc(NC(=O)NC2N=C(c3ncc[nH]3)c3ccccc3N(CC(=O)C(C)(C)C)C2=O)c1 (racemic) [Example 8B, N-((3RS)-1-tert-Butylcarbonylmethyl-2,3-dihydro-5-(2-imidazolyl)-2-oxo-1H-1,4-benzodiazepin-3-yl)-N'-(3-dimethylaminophenyl)urea]
CCK-B receptor
  IC50: 55.3 nM

## CN(C(=O)OC(C)(C)C)c1cccc(C(=O)O)c1 [Example 50, 3-(N-tert-Butoxylcarbonyl-N-methylamino)benzoic acid]
CCK-B receptor; [3]
  IC50: 0.88 nM

## Cc1cccc(NC(=O)NC2N=C(c3nccn3C)c3ccccc3N(CC(=O)C(C)(C)C)C2=O)c1 (racemic) [Example 1, N-((3RS)-1-tert-Butylcarbonylmethyl-2,3-dihydro-2-oxo-5-(2-(1-methyl)imidazolyl)-1H-1,4-benzodiazepin-3-yl)-N'-(3-methylphenyl)urea]
[1]
  % Inhibition (maximum inhibition of gastric acid secretion): 48.9%
CCK-A receptor
  A/B Ratio: IC50 (CCK-A)/IC50 (CCK-B): 187

## CNc1cccc(NC(=O)NC2N=C(c3ccccn3)c3ccccc3N(CC(=O)C(C)(C)C)C2=O)c1 (racemic) [Example 26, N-((3RS)-1-tert-Butylcarbonylmethyl-2,3-dihydro-2-oxo-5-(2-pyridyl)-1H-1,4-benzodiazepin-3-yl)-N'-(3-(methylamino)phenyl)urea]
CCK-B receptor; [3]
  IC50: 1.4 nM
